Measurements published in patent publication US20140005214A1, “PIPERIDINONE CARBOXAMIDE SPIROHYDANTOIN CGRP RECEPTOR ANTAGONISTS” (priority 2011, published 2014).

Target: T1, recombinant human CL receptor/RAMP1 (Homo sapiens, UniProt O60894+Q16602)
T1 construct: expressed in transfected cells; membranes
Test: Recombinant receptor binding assay (125I-hCGRP)
Conditions: membranes of HEK 293 cells expressing recombinant human CL receptor/RAMP1; 10 pM 125I-hCGRP
Procedure: RECOMBINANT RECEPTOR: Human CL receptor (Genbank accession number L76380) was subcloned into the expression vector pIREShyg2 (BD Biosciences Clontech) as a 5′NheI and 3′ PmeI fragment. Human RAMP1 (Genbank accession number AJ001014) was subcloned into the expression vector pIRESpuro2 (BD Biosciences Clontech) as a 5′NheI and 3′NotI fragment. HEK 293 cells (human embryonic kidney cells; ATCC #CRL-1573) were cultured in DMEM with 4.5 g/L glucose, 1 mM sodium pyruvate and 2 mM glutamine supplemented with 10% fetal bovine serum (FBS), 100 units/mL penicillin and 100 μg/mL streptomycin, and maintained at 37° C. and 95% humidity. Cells were subcultured by treatment with 0.25% trypsin with 0.1% EDTA in HBSS. Stable cell line generation was accomplished by co-transfecting 10 μg of DNA with 30 μg Lipofectamine 2000 (Invitrogen) in 75 cm^2 flasks. CL receptor and RAMP1 expression constructs were co-transfected in equal amounts. Twenty-four hours after transfection the cells were diluted and selective medium (growth medium+[…] hygromycin and 1 μg/mL puromycin) was added the following day. A clonal cell line was generated by single cell deposition utilizing a FACS Vantage SE (Becton Dickinson). Growth medium was adjusted to 150 μg/mL hygromycin and 0.5 μg/mL puromycin for cell propagation.
RECOMBINANT RECEPTOR BINDING ASSAY: Cells expressing recombinant human CL receptor/RAMP1 were washed with PBS and harvested in harvest buffer containing 50 mM HEPES, 1 mM EDTA and Complete™ protease inhibitors (Roche). The cell suspension was disrupted with a laboratory homogenizer and centrifuged at 48,000 g to isolate membranes. The pellets were resuspended in harvest buffer plus 250 mM sucrose and stored at −70° C. For binding assays, 20 μg of membranes were incubated in 1 mL binding buffer (10 mM HEPES, pH 7.4, 5 mM MgCl2, and 0.2% BSA) for 3 h at room temperature containing 10 pM ^125I-hCGRP (GE Healthcare) and antagonist. The assay was terminated by filtration through 96-well GFB glass fiber filter plates (PerkinElmer) that had been blocked with 0.05% polyethyleneimine. The filters were washed 3 times with ice-cold assay buffer (10 mM HEPES, pH 7.4, and 5 mM MgCl2). Scintillation fluid was added and the plates were counted on a Topcount (Packard). Non-specific binding was determined and the data analysis was carried out with the apparent dissociation constant (Ki) determined by using a non-linear least squares fitting the bound CPM data to the equation below: […]
Where Y is observed CPM bound, Ymax is total bound counts, Ymin is non specific bound counts, (Ymax−Ymin) is specific bound counts, % Imax is the maximum percent inhibition, % I min is the minimum percent inhibition, radiolabel is the probe, and the Kd is the apparent dissociation constant for the radioligand for the receptor as determined by hot saturation experiments.

T1 sequence (Q16602 23-461): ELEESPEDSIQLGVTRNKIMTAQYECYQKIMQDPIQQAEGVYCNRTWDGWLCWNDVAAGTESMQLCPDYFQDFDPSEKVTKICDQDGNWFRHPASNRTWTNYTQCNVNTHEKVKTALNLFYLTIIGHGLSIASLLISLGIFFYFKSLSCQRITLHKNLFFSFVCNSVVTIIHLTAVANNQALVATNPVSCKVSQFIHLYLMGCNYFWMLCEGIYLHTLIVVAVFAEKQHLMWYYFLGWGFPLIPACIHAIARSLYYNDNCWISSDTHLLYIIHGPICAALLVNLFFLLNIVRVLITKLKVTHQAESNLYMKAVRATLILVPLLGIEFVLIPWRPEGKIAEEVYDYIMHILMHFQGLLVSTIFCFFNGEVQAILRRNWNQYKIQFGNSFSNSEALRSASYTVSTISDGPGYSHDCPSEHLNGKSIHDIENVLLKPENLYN
T1 sequence (O60894 27-148): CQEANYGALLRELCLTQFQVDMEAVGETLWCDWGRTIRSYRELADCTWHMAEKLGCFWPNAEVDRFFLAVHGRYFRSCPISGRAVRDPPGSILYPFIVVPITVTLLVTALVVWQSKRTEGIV

| SMILES | Ki |
| --- | --- |
| C[C@@H]1[C@H](c2ccccc2)C[C@H](NC(=O)c2ccc3c(c2)C[C@@]2(C3)C(=O)NC(=O)N2C)C(=O)N1CC(F)(F)F [Example 3] | 0.36 nM |
| C[C@@H]1[C@H](c2c(F)c(F)cc(F)c2F)C[C@H](NC(=O)c2ccc3c(c2)C[C@@]2(C3)C(=O)NC(=O)N2C)C(=O)N1CC(F)(F)F [Example 4] | 0.036 nM |
| Cc1ccccc1[C@@H]1C[C@H](NC(=O)c2ccc3c(c2)C[C@@]2(C3)C(=O)NC(=O)N2C)C(=O)N(CC(F)(F)F)[C@@H]1C [Example 5] | 1.9 nM |
| Cc1cccc([C@@H]2C[C@H](NC(=O)c3ccc4c(c3)C[C@@]3(C4)C(=O)NC(=O)N3C)C(=O)N(CC(F)(F)F)[C@@H]2C)c1 [Example 6] | 1.8 nM |
| C[C@@H]1[C@H](c2c(F)ccc(F)c2F)C[C@H](NC(=O)c2ccc3c(c2)C[C@@]2(C3)C(=O)NC(=O)N2C)C(=O)N1CC(F)(F)F [Example 2] | 0.048 nM |
| Cc1c(F)cccc1[C@@H]1C[C@H](NC(=O)c2ccc3c(c2)C[C@@]2(C3)C(=O)NC(=O)N2C)C(=O)N(CC(F)(F)F)[C@@H]1C [Example 7] | 0.5 nM |
| C[C@@H]1[C@H](c2cc(F)cc(F)c2F)C[C@H](NC(=O)c2ccc3c(c2)C[C@@]2(C3)C(=O)NC(=O)N2C)C(=O)N1CC(F)(F)F [Example 1, (4S)-3-Methyl-N-[(3S,5S,6R)-6-methyl-2-oxo-1-(2,2,2-trifluoroethyl)-5-(2,3,5-trifluorophenyl)piperidin-3-yl]-2,5-dioxo-1′,3′-dihydrospiro[imidazolidine-4,2′-indene]-5′-carboxamide] | 0.042 nM |
